Results published in PubChem BioAssay (NCI).
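Dose response: 5 concentrations. Exposure: 48 h. Format: 96-well plates. Endpoint: linear interpolation; highest concentration if not reached. TGI: total growth inhibition.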

Assays:
Assay in all cases: inhibition of tumour cell growth, NCI panel, 48 h
786-0 renal = system: 786-0 renal
A498 renal = system: A498 renal
A549 NSCLC = system: A549 NSCLC
ACHN renal = system: ACHN renal
CAKI-1 renal = system: CAKI-1 renal
CCRF-CEM leukemia = system: CCRF-CEM leukemia
COLO 205 colon = system: COLO 205 colon
DLD-1 colon = system: DLD-1 colon
DMS 114 small cell lung = system: DMS 114 small cell lung
DMS 273 small cell lung = system: DMS 273 small cell lung
EKVX NSCLC = system: EKVX NSCLC
HCC-2998 colon = system: HCC-2998 colon
HCT-116 colon = system: HCT-116 colon
HCT-15 colon = system: HCT-15 colon
HL-60(TB) leukemia = system: HL-60(TB) leukemia
HOP-18 NSCLC = system: HOP-18 NSCLC
HOP-62 NSCLC = system: HOP-62 NSCLC
HOP-92 NSCLC = system: HOP-92 NSCLC
HT29 colon = system: HT29 colon
IGROV1 ovarian = system: IGROV1 ovarian
K-562 leukemia = system: K-562 leukemia
KM12 colon = system: KM12 colon
KM20L2 colon = system: KM20L2 colon
LOX IMVI melanoma = system: LOX IMVI melanoma
LXFL 529 NSCLC = system: LXFL 529 NSCLC
M14 melanoma = system: M14 melanoma
M19-MEL melanoma = system: M19-MEL melanoma
MALME-3M melanoma = system: MALME-3M melanoma
MOLT-4 leukemia = system: MOLT-4 leukemia
NCI-H226 lung = system: NCI-H226 lung
NCI-H23 lung = system: NCI-H23 lung
NCI-H460 lung = system: NCI-H460 lung
NCI-H522 lung = system: NCI-H522 lung
OVCAR-3 ovarian = system: OVCAR-3 ovarian
OVCAR-4 ovarian = system: OVCAR-4 ovarian
OVCAR-5 ovarian = system: OVCAR-5 ovarian
OVCAR-8 ovarian = system: OVCAR-8 ovarian
RPMI-8226 leukemia = system: RPMI-8226 leukemia
RXF 393 renal = system: RXF 393 renal
RXF-631 renal = system: RXF-631 renal
SF-268 CNS = system: SF-268 CNS
SF-295 CNS = system: SF-295 CNS
SF-539 CNS = system: SF-539 CNS
SK-MEL-2 melanoma = system: SK-MEL-2 melanoma
SK-MEL-28 melanoma = system: SK-MEL-28 melanoma
SK-MEL-5 melanoma = system: SK-MEL-5 melanoma
SK-OV-3 ovarian = system: SK-OV-3 ovarian
SN12C renal = system: SN12C renal
SNB-19 CNS = system: SNB-19 CNS
SNB-75 CNS = system: SNB-75 CNS
SNB-78 CNS = system: SNB-78 CNS
SW-620 colon = system: SW-620 colon
TK-10 renal = system: TK-10 renal
U251 CNS = system: U251 CNS
UACC-257 melanoma = system: UACC-257 melanoma
UACC-62 melanoma = system: UACC-62 melanoma
UO-31 renal = system: UO-31 renal

C#CCN(Cc1ccc2nc(-c3ccccc3)c(Cl)nc2c1)c1cc(OC)c(OC)c(OC)c1
TGI (786-0 renal): > 100 µM
TGI (A498 renal): > 100 µM
TGI (A549 NSCLC): > 100 µM
TGI (ACHN renal): > 100 µM
TGI (CAKI-1 renal): > 100 µM
TGI (CCRF-CEM leukemia): > 100 µM
TGI (COLO 205 colon): > 100 µM
TGI (DLD-1 colon): > 100 µM
TGI (DMS 114 small cell lung): 51.8 µM
TGI (DMS 273 small cell lung): > 100 µM
TGI (EKVX NSCLC): > 100 µM
TGI (HCC-2998 colon): > 100 µM
TGI (HCT-116 colon): > 100 µM
TGI (HCT-15 colon): > 100 µM
TGI (HL-60(TB) leukemia): > 100 µM
TGI (HOP-18 NSCLC): > 100 µM
TGI (HOP-62 NSCLC): > 100 µM
TGI (HOP-92 NSCLC): > 100 µM
TGI (HT29 colon): > 100 µM
TGI (IGROV1 ovarian): > 100 µM
TGI (K-562 leukemia): > 100 µM
TGI (KM12 colon): > 100 µM
TGI (KM20L2 colon): > 100 µM
TGI (LOX IMVI melanoma): 40.4 µM
TGI (LXFL 529 NSCLC): > 100 µM
TGI (M14 melanoma): > 100 µM
TGI (M19-MEL melanoma): > 100 µM
TGI (MALME-3M melanoma): > 100 µM
TGI (MOLT-4 leukemia): > 100 µM
TGI (NCI-H226 lung): > 100 µM
TGI (NCI-H23 lung): > 100 µM
TGI (NCI-H460 lung): > 100 µM
TGI (NCI-H522 lung): > 100 µM
TGI (OVCAR-3 ovarian): > 100 µM
TGI (OVCAR-4 ovarian): > 100 µM
TGI (OVCAR-5 ovarian): > 100 µM
TGI (OVCAR-8 ovarian): > 100 µM
TGI (RPMI-8226 leukemia): 43.5 µM
TGI (RXF 393 renal): > 100 µM
TGI (RXF-631 renal): > 100 µM
TGI (SF-268 CNS): > 100 µM
TGI (SF-295 CNS): > 100 µM
TGI (SF-539 CNS): > 100 µM
TGI (SK-MEL-2 melanoma): > 100 µM
TGI (SK-MEL-28 melanoma): > 100 µM
TGI (SK-MEL-5 melanoma): > 100 µM
TGI (SK-OV-3 ovarian): > 100 µM
TGI (SN12C renal): > 100 µM
TGI (SNB-19 CNS): > 100 µM
TGI (SNB-75 CNS): > 100 µM
TGI (SNB-78 CNS): > 100 µM
TGI (SW-620 colon): 34.2 µM
TGI (TK-10 renal): > 100 µM
TGI (U251 CNS): > 100 µM
TGI (UACC-257 melanoma): > 100 µM
TGI (UACC-62 melanoma): > 100 µM
TGI (UO-31 renal): > 100 µM

NC(CCCNCc1ccccc1)C(=O)O (stereo not drawn)
TGI (786-0 renal): > 100 µM
TGI (A498 renal): > 100 µM
TGI (A549 NSCLC): > 100 µM
TGI (ACHN renal): > 100 µM
TGI (CAKI-1 renal): > 100 µM
TGI (CCRF-CEM leukemia): > 100 µM
TGI (COLO 205 colon): > 100 µM
TGI (DLD-1 colon): > 100 µM
TGI (DMS 114 small cell lung): > 100 µM
TGI (DMS 273 small cell lung): > 100 µM
TGI (EKVX NSCLC): > 100 µM
TGI (HCT-116 colon): > 100 µM
TGI (HCT-15 colon): > 100 µM
TGI (HL-60(TB) leukemia): > 100 µM
TGI (HOP-18 NSCLC): > 100 µM
TGI (HOP-62 NSCLC): > 100 µM
TGI (HOP-92 NSCLC): > 100 µM
TGI (HT29 colon): > 100 µM
TGI (IGROV1 ovarian): > 100 µM
TGI (K-562 leukemia): > 100 µM
TGI (KM12 colon): > 100 µM
TGI (KM20L2 colon): > 100 µM
TGI (LOX IMVI melanoma): > 100 µM
TGI (LXFL 529 NSCLC): > 100 µM
TGI (M14 melanoma): > 100 µM
TGI (M19-MEL melanoma): > 100 µM
TGI (MALME-3M melanoma): > 100 µM
TGI (MOLT-4 leukemia): > 100 µM
TGI (NCI-H226 lung): > 100 µM
TGI (NCI-H23 lung): > 100 µM
TGI (NCI-H460 lung): > 100 µM
TGI (NCI-H522 lung): > 100 µM
TGI (OVCAR-3 ovarian): > 100 µM
TGI (OVCAR-4 ovarian): > 100 µM
TGI (OVCAR-8 ovarian): > 100 µM
TGI (RPMI-8226 leukemia): > 100 µM
TGI (RXF-631 renal): > 100 µM
TGI (SF-268 CNS): > 100 µM
TGI (SF-539 CNS): > 100 µM
TGI (SK-MEL-2 melanoma): > 100 µM
TGI (SK-MEL-28 melanoma): > 100 µM
TGI (SK-MEL-5 melanoma): > 100 µM
TGI (SK-OV-3 ovarian): > 100 µM
TGI (SN12C renal): > 100 µM
TGI (SNB-19 CNS): > 100 µM
TGI (SNB-75 CNS): > 100 µM
TGI (SW-620 colon): > 100 µM
TGI (TK-10 renal): > 100 µM
TGI (UACC-257 melanoma): > 100 µM
TGI (UACC-62 melanoma): > 100 µM
TGI (UO-31 renal): > 100 µM
